These results are taken from ChEMBL document CHEMBL1821573, “A fast virtual screening approach to identify structurally diverse inhibitors of trypanothione reductase” (Bioorg Med Chem Lett, 2011).

The assay has as its target Trypanothione reductase (Trypanosoma cruzi, UniProt P28593). Kind of assay: Inhibition of Trypanosoma cruzi TryR using trypanothione as substrate preincubated for 10 mins.

pKi: −log10 of the molar value.

Trypanothione reductase, sequence (P28593 whole entry): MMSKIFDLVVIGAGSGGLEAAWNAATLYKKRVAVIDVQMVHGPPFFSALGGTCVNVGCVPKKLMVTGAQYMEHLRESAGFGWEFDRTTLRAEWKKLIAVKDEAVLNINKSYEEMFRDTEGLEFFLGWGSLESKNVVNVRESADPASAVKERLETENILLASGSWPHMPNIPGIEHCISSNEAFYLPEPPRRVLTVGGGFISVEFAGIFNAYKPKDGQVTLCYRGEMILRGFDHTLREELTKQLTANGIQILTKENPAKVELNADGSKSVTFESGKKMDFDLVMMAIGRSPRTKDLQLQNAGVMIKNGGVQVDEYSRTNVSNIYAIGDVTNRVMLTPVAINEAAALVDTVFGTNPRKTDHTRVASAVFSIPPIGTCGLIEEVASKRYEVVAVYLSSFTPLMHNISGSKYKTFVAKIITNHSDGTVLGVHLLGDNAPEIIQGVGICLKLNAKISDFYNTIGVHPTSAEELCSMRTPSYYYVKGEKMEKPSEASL

Usually pKi stands for the Ki on a negative log10 scale, so that one unit is a factor of ten. In turn, `Nc1ccc2[nH]c(CCCCCCCCc3nc4cc(N)ccc4[nH]3)nc2c1` showed a pKi of 4.97.

On to `Cc1ccc2[nH]c(Cc3ccc(NC(=O)CCc4nc5ccccc5[nH]4)cc3)nc2c1`, for which the pKi was 4.88.

The compound `CCn1c(-c2ccccc2)cnc1SCC(=O)Nc1ccc(C2CCCCC2)cc1` gave a pKi of 5.24.

In turn, `CCn1c(-c2ccccc2)cnc1SCC(=O)Nc1sc2c(c1C#N)CCCC2` showed a pKi of 4.88.

Consider `N#Cc1c(NC(=O)CSc2nc(-c3ccc(Cl)cc3)c[nH]2)sc2c1CCCC2`, for which the pKi was 5.03.

`Cc1ccc2nc(Cc3ccc(NC(=O)C(C)Oc4ccccc4)cc3)[nH]c2c1` (centres undefined) showed a pKi of 4.57.

In the case of `Cc1sc2ncn3c(SCC(=O)Nc4sc5c(c4C#N)CCCC5)nnc3c2c1C`, the pKi was 4.93.

As to `COCCn1c(-c2ccccc2)cnc1SCC(=O)CNc1ccc(S(=O)(=O)N2CCCCC2)cc1`, the pKi was 4.95.

Take `O=C(CNc1ccc(S(=O)(=O)N2CCCCC2)cc1)CSc1ncc(-c2ccc(Cl)cc2)n1-c1ccccc1`: the pKi is 4.65.
